According to patent US20100286186A1, “NOVEL DICARBOXYLIC ACID LINKED AMINO ACID AND PEPTIDE PRODRUGS OF OPIOIDS AND USES THEREOF” (Shire LLC, priority 2009, published 2010):

Assays:
[1] = test system: gut motility in the rat; test: Charcoal propulsion test of GI motility in the rat; assay type: in vivo; conditions: oral
Method: Test treatments were administered to groups of up to 10 rats fasted overnight prior to the test.
Test treatments were administered orally 60 minutes prior to a 2.0 mL oral dose of a 10% suspension of charcoal in 5% gum arabic. Thirty minutes after dosing with charcoal, the rats were sacrificed and the entire gastro-intestinal tract quickly and carefully removed. The distance the charcoal meal had traveled from the pyloric sphincter toward the caecum was measured and expressed as a percentage of both the total gut length and the length of the small intestine.

[2] = Plasma pharmacokinetics of meptazinol dicarboxylate linked prodrugs after oral gavage to dogs; assay type: in vivo, dog; conditions: dog, 1 mg meptazinol base equivalents/kg; for systemic levels of meptazinol versus expected Cmax after the drug itself: oral gavage; for Dog Cmax (plasma meptazinol): meptazinol level
[3] = Plasma pharmacokinetics of meptazinol dicarboxylate linked prodrugs after oral gavage to cynomolgus monkeys; assay type: in vivo, cynomolgus monkey; conditions: 1 mg meptazinol base equivalents/kg; for Monkey Cmax (plasma meptazinol) / Monkey Cmax (plasma prodrug levels, in brackets): cynomolgus monkey, oral gavage of prodrug; for Monkey Cmax (plasma meptazinol): meptazinol level; for Monkey Cmax (plasma prodrug levels, in brackets): prodrug level, BLQ = below 0.5 ng/mL; for improvement in systemic levels of meptazinol: monkey, oral gavage
[4] = Stability of meptazinol dicarboxylate bridged amino acid prodrugs in simulated gastric and intestinal juice and pH 7.4 buffer; assay type: physicochemical; conditions: for 2 h stability in pH7.4 buffer (37° C.), Conversion to meptazinol: pH 7.4 buffer
Source text: Initially the inherent chemical and biological stability of various dicarboxylate bridged amino acid prodrugs of meptazinol, was investigated under the conditions prevailing in the GI tract. Premature hydrolysis of the prodrug in the gut lumen prior to absorption would reduce the opportunity for transient protection of the drug during its passage though the liver and the desired reduction in first pass metabolism.
The remaining concentrations of the prodrug (and also drug released) were then assayed by HPLC. Additionally their chemical stability was evaluated in pH 7.4 buffer for 2 h 37° C.

[5] = oral gavage of prodrug, prodrug level, BLQ = below 0.5 ng/mL

## COc1ccc2c3c1O[C@H]1[C@@H](O)C=C[C@H]4[C@@H](C2)N(C)CC[C@@]341 [Codeine phosphate hemihydrate]
[1]; 10 mg/kg
  % change from vehicle-treated animals, small intestine: −22.0%
  % change from vehicle-treated animals, total gut length: −21.7%
[1]; 30 mg/kg
  % change from vehicle-treated animals, small intestine: −32.1%
  % change from vehicle-treated animals, total gut length: −32.0%
[1]; 100 mg/kg
  % change from vehicle-treated animals, small intestine: −35.1%
  % change from vehicle-treated animals, total gut length: −34.9%

## COc1ccc2c3c1O[C@H]1[C@@H](O)CC[C@H]4[C@@H](C2)N(C)CC[C@@]341.O=C(O)C(O)C(O)C(=O)O [Dihydrocodeine Hydrogen Tartrate, reference compound]
[1]; 10 mg/kg
  % change from vehicle-treated animals, small intestine: −17.6%
  % change from vehicle-treated animals, total gut length: −16.3%
[1]; 30 mg/kg
  % change from vehicle-treated animals, small intestine: −29.8%
  % change from vehicle-treated animals, total gut length: −30.5%
[1]; 100 mg/kg
  % change from vehicle-treated animals, small intestine: −56.4%
  % change from vehicle-treated animals, total gut length: −57.0%
[1]; 300 mg/kg
  % change from vehicle-treated animals, small intestine: −67.7%
  % change from vehicle-treated animals, total gut length: −68.0%

## CCC1(c2cccc(OC(=O)CC(C)(C)CC(=O)Nc3ccc(C(=O)O)cc3)c2)CCCCN(C)C1 (centres unmarked) [Meptazinol [3,3-dimethyl-glutaryl-PABA]ester]
[2]
  systemic levels of meptazinol versus expected Cmax after the drug itself: improved systemic levels of meptazinol
[2]; oral gavage of prodrug
  Dog Cmax (plasma meptazinol): 9.4 ng/mL
[2]; [5]
  Dog Cmax (plasma prodrug levels, in brackets): 25 ng/mL
[3]
  Monkey Cmax (plasma meptazinol): 1.3 ng/mL
  Monkey Cmax (plasma prodrug levels, in brackets): BLQ
  improvement in systemic levels of meptazinol: not seen in the monkey
[4]
  2 h stability in pH7.4 buffer (37° C.), Conversion to meptazinol: 93%
  1 h stability in simulated gastric fluid (37° C.), Conversion to meptazinol: 1%
  2 h stability in simulated intestinal fluid (37° C.), Conversion to meptazinol: 5%

## CCC1(c2cccc(OC(=O)C=CC(=O)Nc3ccc(C(=O)O)cc3)c2)CCCCN(C)C1 (centres unmarked) [Meptazinol [fumaryl-PABA] ester]
[2]; oral gavage of prodrug
  Dog Cmax (plasma meptazinol): 1.5 ng/mL
[2]; [5]
  Dog Cmax (plasma prodrug levels, in brackets): BLQ
[3]
  Monkey Cmax (plasma meptazinol): 1.4 ng/mL
  Monkey Cmax (plasma prodrug levels, in brackets): BLQ
[4]
  2 h stability in pH7.4 buffer (37° C.), Conversion to meptazinol: 47%
  1 h stability in simulated gastric fluid (37° C.), Conversion to meptazinol: 2%
  2 h stability in simulated intestinal fluid (37° C.), Conversion to meptazinol: 6%

## CCC1(c2cccc(OC(=O)CCCC(=O)N[C@H](C(=O)O)C(C)C)c2)CCCCN(C)C1 (stereo partly drawn) [Meptazinol [glutaryl-(S)-valine] ester]
[2]
  systemic levels of meptazinol versus expected Cmax after the drug itself: improved systemic levels of meptazinol
[2]; [5]
  Dog Cmax (plasma prodrug levels, in brackets): 2.8 ng/mL
[3]
  improvement in systemic levels of meptazinol: not seen in the monkey

## CCC1(c2cccc(OC(=O)/C=C\C(=O)N[C@@H](Cc3ccccc3)C(=O)O)c2)CCCCN(C)C1 (stereo partly drawn) [Meptazinol [malearyl-(S)-phenylanine] ester]
[2]; [5]
  Dog Cmax (plasma prodrug levels, in brackets): 1.7 ng/mL

## CCC1(c2cccc(OC(=O)/C=C\C(=O)N[C@H](C(=O)O)C(C)C)c2)CCCCN(C)C1 (stereo partly drawn) [Meptazinol [malearyl-(S)-valine] ester]
[2]; beagle, plasma, oral gavage of prodrug, prodrug level, BLQ = below 0.5 ng/mL, read-out: Dog Cmax (plasma prodrug levels, in brackets)
  Cmax: 6 ng/mL
[3]
  Monkey Cmax (plasma prodrug levels, in brackets): BLQ

## CCC1(c2cccc(OC(=O)CC(=O)NC(C(=O)O)C(C)C)c2)CCCCN(C)C1 [Meptazinol [malonyl-(S)-valine] ester]
[2]; [5]
  Dog Cmax (plasma prodrug levels, in brackets): 44 ng/mL

## CCC1(c2cccc(OC(=O)CC(=O)Nc3ccc(C(=O)O)cc3)c2)CCCCN(C)C1 (centres unmarked) [Meptazinol [malonyl-PABA] ester]
[2]; oral gavage of prodrug
  Dog Cmax (plasma meptazinol): 2.1 ng/mL
